According to US8329447B2, “Strain of Lactobacillus crispatus” (Osel, Inc., priority 2008, dated 2012):
“Also recorded” adds a separate entry of the source.

Tested on: SJ-3C cells
Experiment: Agar overlay disc diffusion antibiotic susceptibility
Assay type: cell-based, Lactobacillus crispatus
Settings: BBL Sensi-Disc on MRS agar overlay, 37° C. overnight anaerobically

Compound	antibiotic susceptibility or resistance of SJ-3C
O=C(O)c1cn(C2CC2)c2cc(N3CCNCC3)c(F)cc2c1=O [ciprofloxacin]	resistance
C[C@@H]1O[C@@H]1P(=O)(O)O [fosfomycin]	resistance
CCC[C@@H]1C[C@@H](C(=O)N[C@@H]([C@H]2O[C@H](SC)[C@H](O)[C@@H](O)[C@H]2O)[C@@H](C)O)N(C)C1 [lincomycin]	resistance; also recorded: resistant
Cc1ncc([N+](=O)[O-])n1CCO [metronidazole]	resistance
Cc1noc(NS(=O)(=O)c2ccc(N)cc2)c1C [sulfisoxazole]	resistance
gentamicin	resistance
sulfamethoxazole-trimethoprim	resistance
